This passage reports IC50 results from patent US20090054413A1, “Novel 5,6-Dihydropyrazolo[3,4-E] [L,4]Diazepin-4 (IH) -One Derivatives for the Treatment of Asthma and Chronic Obstructive Pulmonary Disease” (AstraZeneca AB, priority 2005, published 2009).

As usually defined, the IC50 is the concentration needed to halve the response being measured.

Sequence of recombinant Human Phosphodiesterase B2 (PDE4B2) (Q07343 1-564 isoform Q07343-2): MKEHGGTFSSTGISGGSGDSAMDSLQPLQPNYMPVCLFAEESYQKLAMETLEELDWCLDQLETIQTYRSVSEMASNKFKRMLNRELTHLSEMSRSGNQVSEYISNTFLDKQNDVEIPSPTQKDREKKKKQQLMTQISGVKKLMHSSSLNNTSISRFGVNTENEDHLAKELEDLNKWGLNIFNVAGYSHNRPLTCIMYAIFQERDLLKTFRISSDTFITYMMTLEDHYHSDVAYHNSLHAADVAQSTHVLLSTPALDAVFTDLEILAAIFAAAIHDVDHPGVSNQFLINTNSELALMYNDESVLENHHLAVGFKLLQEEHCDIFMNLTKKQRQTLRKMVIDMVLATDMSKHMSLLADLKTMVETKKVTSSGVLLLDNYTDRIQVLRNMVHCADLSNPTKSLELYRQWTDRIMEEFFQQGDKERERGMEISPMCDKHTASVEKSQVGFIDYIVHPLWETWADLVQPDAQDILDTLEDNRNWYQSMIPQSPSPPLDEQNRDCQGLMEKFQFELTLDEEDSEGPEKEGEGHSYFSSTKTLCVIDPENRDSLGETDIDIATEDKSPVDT

The assay concerns the target recombinant Human Phosphodiesterase B2 (PDE4B2) (Homo sapiens, UniProt Q07343). Kind of assay: Human Phosphodiesterase B2 Alpha Screen Assay. The class given is biochemical. The settings on record: recombinant human PDE4B2, cAMP substrate, 60 min at room temperature. How it is done: Human Phosphodiesterase B2 Alpha Screen Assay
The assay uses recombinant Human Phosphodiesterase B2 (PDE4B2) produced in house (PrAZL0133), stored at −20° C. The substrate uses cAMP, part of the Alpha Screen cAMP kit (Perkin Elmer, Cat #6760625M), stored at 4° C. The Alpha Screen kit also includes biotinylated cAMP, acceptor and donor beads.
The assay additions were as follows: Test compounds and controls were added to white 384-well flat-bottom plates (Greiner, Cat #781075), 0.2 μl in 100% DMSO, followed by 10 μl PDE4B2 in reaction buffer. The reaction buffer constitution was: 50 mM Tris (pH 7.5), 8.3 mM MgCl2, 1.7 mM EGTA and 0.01% (w/v) Brij®35. The enzyme and the compounds were incubated at room temperature for 15 minutes. Then 10 μl cAMP in reaction buffer was added. The assay was stopped after 60 minutes incubation at room temperature by adding 10 μl acceptor beads in detection buffer with 40 mM EDTA. The detection buffer constitution was: 5 mM Tris (pH 7.5), 0.1% (w/v) BSA and 0.1% (v/v) Tween 20. This addition followed by an addition of 10 μl donor beads in detection buffer, with biotinylated cAMP. The plates were then incubated, dark at room temperature, for 5 hours followed by measurement on a Fusion™-α analyser. IC50 values (presented in Table 1) were determined using Xlfit curve fitting using model 205.
As to `CCc1nn(-c2ccc(S(C)(=O)=O)cc2)c2c1C(=O)NCC(c1ccccc1)=N2` [Example 5, 3-ethyl-1-[4-(methylsulfonyl)phenyl]-7-phenyl-5,6-dihydropyrazolo[3,4-e][1,4]diazepin-4(1H)-one], the IC50 was found to be 43 nM.

As to `CCc1nn(C2CCCC2)c2c1C(=O)NCC(CCC(=O)NCCN(C)C)=N2` [Example 29, 3-(1-Cyclopentyl-3-ethyl-4-oxo-1,4,5,6-tetrahydropyrazolo[3,4-e][1,4]diazepin-7-yl)-N-[2-(dimethylamino)ethyl]propanamide], the IC50 amounted to 4480 nM.

On to `CCc1nn(C2CC[S+]([O-])CC2)c2c1C(=O)NCC(c1ccccc1)=N2` (stereo not drawn) [Example 34, 3-Ethyl-1-(1-oxidotetrahydro-2H-thiopyran-4-yl)-7-phenyl-5,6-dihydropyrazolo[3,4-e][1,4]diazepin-4(1H)-one], for which the 50% inhibitory concentration (IC50) amounted to 99.1 nM.

As to `CCc1nn(C2CCCC2)c2c1C(=O)N(C)CC(c1ccccc1)=N2` [Example 26, 1-Cyclopentyl-3-ethyl-5-methyl-7-phenyl-5,6-dihydropyrazolo[3,4-e][1,4]diazepin-4(1H)-one], the half-maximal inhibitory concentration (IC50) was found to be 103 nM.

Regarding `CCc1nn(C2CCCC2)c2c1C(=O)NCC(c1ccc(OC)cc1)=N2` [Example 2, 1-cyclopentyl-3-ethyl-7-(4-methoxyphenyl)-5,6-dihydropyrazolo[3,4-e][1,4]diazepin-4(1H)-one], the IC50 came out at 0.98 nM.

On to `CCc1nn(C2CCCC2)c2c1C(=O)NCC(c1ccc(O)c(C(=O)OC)c1)=N2` [Example 11, Methyl 5-(1-cyclopentyl-3-ethyl-4-oxo-1,4,5,6-tetrahydropyrazolo[3,4-e][1,4]diazepin-7-yl)-2-hydroxybenzoate], for which the IC50 was 0.59 nM.

For the molecule `CCc1nn(C2CCS(=O)(=O)C2)c2c1C(=O)NCC(c1ccccc1)=N2` (stereo not drawn) [Example 32, 1-(1,1-Dioxidotetrahydrothien-3-yl)-3-ethyl-7-phenyl-5,6-dihydropyrazolo[3,4-e][1,4]diazepin-4(1H)-one], the IC50 turned out to be 5.8 nM.

`CCc1nn(C2CCCC2)c2c1C(=O)NCC(c1ccc(OC(F)(F)F)cc1)=N2` [Example 22, 1-Cyclopentyl-3-ethyl-7-[4-(trifluoromethoxy)phenyl]-5,6-dihydropyrazolo[3,4-e][1,4]diazepin-4(1H)-one]: the IC50 came out at 4.16 nM.

Consider `CCc1nn(C2CCS(=O)(=O)CC2)c2c1C(=O)NCC(c1ccccc1)=N2` [Example 35, 1-(1,1-Dioxidotetrahydro-2H-thiopyran-4-yl)-3-ethyl-7-phenyl-5,6-dihydropyrazolo[3,4-e][1,4]diazepin-4(1H)-one], for which the IC50 was determined as 40.3 nM.

On to `CSc1nn(-c2ccccc2)c2c1C(=O)NCC(c1ccccc1)=N2` [Example 31, 3-(Methylthio)-1,7-diphenyl-5,6-dihydropyrazolo[3,4-e][1,4]diazepin-4(1H)-one], for which the IC50 amounted to 426 nM.

For the molecule `CCc1nn(C2CCCC2)c2c1C(=O)NCC(c1ccc(Cl)cc1)=N2` [Example 12, 7-(4-Chlorophenyl)-1-cyclopentyl-3-ethyl-5,6-dihydropyrazolo[3,4-e][1,4]diazepin-4(1H)-one], the IC50 is 0.57 nM.

Take `CCc1nn(C2CCCC2)c2c1C(=O)NCC(c1ccc3c(c1)OCCCO3)=N2` [Example 16, 1-Cyclopentyl-7-(3,4-dihydro-2H-1,5-benzodioxepin-7-yl)-3-ethyl-5,6-dihydropyrazolo[3,4-e][1,4]diazepin-4(1H)-one]: the IC50 was determined as 0.43 nM.

As for `CCc1nn(C2CCCC2)c2c1C(=O)NCC(C(C)(C)C)=N2` [Example 18, 7-tert-Butyl-1-cyclopentyl-3-ethyl-5,6-dihydropyrazolo[3,4-e][1,4]diazepin-4(1H)-one], the IC50 was found to be 0.53 nM.

As for `CCc1nn(C2CCCC2)c2c1C(=O)NCC(c1ccc(C)cc1)=N2` [Example 9, 1-Cyclopentyl-3-ethyl-7-(4-methylphenyl)-5,6-dihydropyrazolo[3,4-e][1,4]diazepin-4(1H)-one], the IC50 was found to be 0.61 nM.

On to `CCc1nn(C2CCCC2)c2c1C(=O)NC(c1ccccc1)C(C)=N2` (stereo not drawn) [Example 25, 1-Cyclopentyl-3-ethyl-7-methyl-6-phenyl-5,6-dihydropyrazolo[3,4-e][1,4]diazepin-4(1H)-one], for which the IC50 was 385 nM.

As to `CCc1nn(C2CCCC2)c2c1C(=O)NCC(CCC(=O)O)=N2` [Example 28, 3-(1-Cyclopentyl-3-ethyl-4-oxo-1,4,5,6-tetrahydropyrazolo[3,4-e][1,4]diazepin-7-yl)propanoic acid], the IC50 amounted to 65.3 nM.

On to `CCc1nn(-c2cccc([N+](=O)[O-])c2)c2c1C(=O)NCC(c1ccccc1)=N2` [Example 4, 3-ethyl-1-(3-nitrophenyl)-7-phenyl-5,6-dihydropyrazolo[3,4-e][1,4]diazepin-4(1H)-one], for which the IC50 is 4.8 nM.

As for `CCc1nn(C2CCCC2)c2c1C(=O)NCC(c1ccco1)=N2` [Example 17, 1-Cyclopentyl-3-ethyl-7-(2-furyl)-5,6-dihydropyrazolo[3,4-e][1,4]diazepin-4(1H)-one], the half-maximal inhibitory concentration (IC50) was 2.16 nM.

For `CCc1nn(C2CCCC2)c2c1C(=O)NCC(c1ccccc1OC)=N2` [Example 10, 1-Cyclopentyl-3-ethyl-7-(2-methoxyphenyl)-5,6-dihydropyrazolo[3,4-e][1,4]diazepin-4(1H)-one], the IC50 is 0.91 nM.

As to `CCc1nn(C2CCCC2)c2c1C(=O)NCC(c1ccc(C#N)cc1)=N2` [Example 23, 4-(1-Cyclopentyl-3-ethyl-4-oxo-1,4,5,6-tetrahydropyrazolo[3,4-e][1,4]diazepin-7-yl)benzonitrile], the IC50 was found to be 1.21 nM.

With `CCc1nn(C2CCCC2)c2c1C(=O)NCC(c1ccc(S(C)(=O)=O)cc1)=N2` [Example 24, 1-Cyclopentyl-3-ethyl-7-[4-(methylsulfonyl)phenyl]-5,6-dihydropyrazolo[3,4-e][1,4]diazepin-4(1H)-one], the IC50 came to 3.92 nM.

Regarding `CCc1nn(C2CCCC2)c2c1C(=O)NCC(c1ccc(O)c(C(=O)O)c1)=N2` [Example 27, 5-(1-Cyclopentyl-3-ethyl-4-oxo-1,4,5,6-tetrahydropyrazolo[3,4-e][1,4]diazepin-7-yl)-2-hydroxybenzoic acid], the IC50 stood at 0.52 nM.

For `CCc1nn(C2CCCC2)c2c1C(=O)NCC(c1ccc(OCc3ccccc3)cc1)=N2` [Example 15, 7-[4-(Benzyloxy)phenyl]-1-cyclopentyl-3-ethyl-5,6-dihydropyrazolo[3,4-e][1,4]diazepin-4(1H)-one], the IC50 was determined as 0.9 nM.

For `CCc1nn(C2CCCC2)c2c1C(=O)NCC(CCC(=O)OC)=N2` [Example 20, Methyl 3-(1-cyclopentyl-3-ethyl-4-oxo-1,4,5,6-tetrahydropyrazolo[3,4-e][1,4]diazepin-7-yl)propanoate], the IC50 stood at 28.7 nM.

With `CCc1nn(C2CCCC2)c2c1C(=O)NCC(c1ccc(OC)c(OC)c1)=N2` [Example 7, 1-Cyclopentyl-7-(3,4-dimethoxyphenyl)-3-ethyl-5,6-dihydropyrazolo[3,4-e][1,4]diazepin-4(1H)-one], the IC50 stood at 1.47 nM.

`CCc1nn(-c2ccccc2)c2c1C(=O)NCC(c1ccccc1)=N2` [Example 6, 3-Ethyl-1,7-diphenyl-5,6-dihydropyrazolo[3,4-e][1,4]diazepin-4(1H)-one]: the IC50 was determined as 11 nM.

For `CCc1nn(-c2ccc(F)cc2)c2c1C(=O)NCC(c1ccccc1)=N2` [Example 3, 3-ethyl-1-(4-fluorophenyl)-7-phenyl-5,6-dihydropyrazolo[3,4-e][1,4]diazepin-4(1H)-one], the IC50 was 6.1 nM.
